Structures can show the parent of a compound that is named as a salt.
Key:
Type in all cases: in vivo, C57BL/6J, male
[1] = system: memory (recognition of the familiar object) in mice; assay: Novel Object Recognition (NOR) test in mice; conditions: Donepezil 2 mg/kg i.p., 72 h post treatment, mean, N = 16
[2] = Body weight of the mice in the NOR study; conditions: Donepezil 2 mg/kg i.p. group; mean, N = 16
Description: (§1) Statistical analyses: • Read-outs: DI, N-F, ST, CT, N, F • Unpaired Student's t test: Donep 2 group vs. Control group. • One-way ANOVA, Dunnett test: • NLS-12 groups vs. Control group. • NLS-12 groups vs. Donep 2 group. • Read-outs: DI and N-F, for all groups, paired Student's t test, difference vs. 0. • Body weight: one-way ANOVA.

[3] = system: memory (recognition of the familiar object) in mice; assay: Novel Object Recognition (NOR) test in mice; conditions: mean, N = 16
Procedure: The test was carried out in circular boxes (30 cm diameter, 40 cm high). The objects to be discriminated (L≈1≈h≈3-4 cm) differed in both color and shape and were referred as yellow duck and blue lego. They were fixed with a magnet to the floor of the boxes at 5 cm of the wall, 20 cm distant. Apparently, they have no natural significance for mice and they have never been associated with a reinforcement. In order to rule out the possibility of scent traces left on the objects and therefore the dependency of the recognition capacity of mice on the olfactory cue, the objects and the ground of the box were washed with an odorless disinfectant (Sanicid® diluted in water) and dried between each trial. A camcorder was fixed to the ceiling above the box to record the animals' activity. The experiment was analyzed blindly at a later time.
On the week before the test, animals were handled by the experimenter in charge of the experiment in order to be not stressed at the time of testing. For this purpose, the experimenter placed a small amount of litter, and then the mouse on its hand.
The NOR test was completed over five days (see FIG. 1): • Day 1: Habituation trial. Animals were individually placed for a 15-min free exploration session in empty open boxes. • Day 2. Treatment administration and sample trial. […] They were individually placed 30 min after in the apparatus for a 6-min session with two identical objects (Duck, 50% of animals or Lego, 50% of animals). • Day 3. Choice trial. The mice were individually placed for a 6-min session in the apparatus with two objects (Duck and Lego), one of the objects presented in sample trials (termed as familiar objects) and a novel object (Lego, 50% of animals or Duck, 50% of animals).
The sample and choice trials were recorded with the camera located above the apparatus. The time spent by mice in exploring the objects was measured during the sample trial and the choice trial. Exploration of an object was defined as follows: directing the nose to the object at a distance≤2 cm and/or touching it with the nose or forelimbs; turning around or biting the object, or sitting on the object were not considered as exploratory behavior.
• L=exploration time of the left object in the sample trial. • R=exploration time of the right object in the sample trial. • N=exploration time of the new object in the choice trial. • F=exploration time of the familiar object in the choice trial.
• Exploration indices: • ST=L+R=exploration time (left object+right object) in the sample trial. • CT=N+F=exploration time (new object+familiar object) in the choice trial. • Two memory indices: • N-F=difference of exploration time between the new object and the familiar object in the choice trial.
as §1

COc1cc2c(cc1OC)C(=O)C(CC1CCN(Cc3ccccc3)CC1)C2 (stereo not shown) [Donepezil, Donepezil hydrochloride, reference compound]
CT Exploration time in the choice trial (s) = N + F [1]: 21.7 s
CT Exploration time in the choice trial (s) = N + F ([1]; hydrochloride): did not significantly modify the exploration time during the choice trial
BW Body weight [2]: 23.2 g
N − F Exploration time novel − familiar object ([3]; Donepezil 2 mg/kg i.p. 30 min before sample trial, choice trial): 4.3 s
ST Exploration time in the sample trial ([3]; Donepezil 2 mg/kg i.p., 30 min post treatment): 20.2 s
ST Exploration time in the sample trial (s) ([3]; Donepezil 2 mg/kg i.p., 30 min post treatment, hydrochloride): decreased the exploration time during the sample trial
N Exploration time of novel object ([3]; Donepezil 2 mg/kg i.p., choice trial): 13.1 s

From patent publication US20250268859A1, “OXAFURAMINE, (1R)-N-ETHYL-1-[(2R)-OXOLAN-2-YL]-2-[…], HYDROCHLORIDE AND DERIVATIVES THEREOF FOR TREATING ALZHEIMER'S DISEASE (AD), […] […], […] WITH LEWY BODIES (DLB), MIXED […], FRON[…] DEGENERATION (FTLD), AND PARKINSON'S DISEASE (PD)” (NLS Pharmaceutics AG, priority 2021, published 2025)
